Experimental data taken from patent US20170334934A1, “Macrocyclic picolinamides as fungicides” (DOW AGROSCIENCES LLC, priority 2014, published 2017).
Like-named read-outs stand apart in the source and are kept apart here.

How the values were obtained:
[1] = test system: Puccinia triticina; test: Fungicidal activity: Wheat Brown Rust (PUCCRT), wheat seedlings; assay type: in vivo; conditions: for pest or weed control at 121.5 g/ha: Low Volume (121.5 g/H); for pest or weed control at 100 µg/mL: High Volume (100 ppm)
Procedure: Technical grades of materials were dissolved in acetone, which were then mixed with nine volumes of water containing 110 ppm Triton X-100. The fungicide solutions were applied onto wheat seedlings using an automated booth sprayer to run-off. All sprayed plants were allowed to air dry prior to further handling. All fungicides were evaluated using the aforementioned method for their activity vs. all target diseases, unless stated otherwise. Wheat leaf blotch and brown rust activity were also evaluated using track spray applications, in which case the fungicides were formulated as EC formulations, containing 0.1% Trycol 5941 in the spray solutions. Wheat plants (variety Yuma) were grown from seed in a greenhouse in 50% mineral soil/50% soil-less Metro mix until the first leaf was fully emerged, with 7-10 seedlings per pot. These plants were inoculated with an aqueous spore suspension of Zymoseptoria tritici either prior to or after fungicide treatments. After inoculation the plants were kept in 100% relative humidity (one day in a dark dew chamber followed by two to three days in a lighted dew chamber at 20° C.) to permit spores to germinate and infect the leaf. The plants were then transferred to a greenhouse set at 20° C. for disease to develop. When disease symptoms were fully expressed on the 1st leaves of untreated plants, infection levels were assessed on a scale of 0 to 100 percent disease severity. Percent disease control was calculated using the ratio of disease severity on treated plants relative to untreated plants. Example B: Evaluation of Fungicidal Activity: Wheat Brown Rust (Puccinia triticina; Synonym: Puccinia recondita f. sp. tritici; Bayer Code PUCCRT) Wheat plants (variety Yuma) were grown from seed in a greenhouse in 50% mineral soil/50% soil-less Metro mix until the first leaf was fully emerged, with 7-10 seedlings per pot. These plants were inoculated with an aqueous spore suspension of Puccinia triticina either prior to or after fungicide treatments. After inoculation the plants were kept in a dark dew room at 22° C. with 100% relative humidity overnight to permit spores to germinate and infect the leaf. The plants were then transferred to a greenhouse set at 24° C. for disease to develop. Fungicide formulation, application and disease assessment followed the procedures as described in the Example A.

[2] = test system: Mycosphaerella graminicola; Anamorph: Zymoseptoria tritici; test: Fungicidal activity: Leaf Blotch of Wheat (SEPTTR), wheat seedlings; assay type: in vivo; conditions: wheat; for pest or weed control at 121.5 g/ha: Low Volume (121.5 g/H); for pest or weed control at 100 µg/mL: High Volume (100 ppm)
Procedure: Example A: Evaluation of Fungicidal Activity: Leaf Blotch of Wheat (Mycosphaerella graminicola; Anamorph: Zymoseptoria tritici; Bayer Code […]) Technical grades of materials were dissolved in acetone, which were then mixed with nine volumes of water containing 110 ppm Triton X-100. The fungicide solutions were applied onto wheat seedlings using an automated booth sprayer to run-off. All sprayed plants were allowed to air dry prior to further handling. All fungicides were evaluated using the aforementioned method for their activity vs. all target diseases, unless stated otherwise. Wheat leaf blotch and brown rust activity were also evaluated using track spray applications, in which case the fungicides were formulated as EC formulations, containing 0.1% Trycol 5941 in the spray solutions. Wheat plants (variety Yuma) were grown from seed in a greenhouse in 50% mineral soil/50% soil-less Metro mix until the first leaf was fully emerged, with 7-10 seedlings per pot. These plants were inoculated with an aqueous spore suspension of Zymoseptoria tritici either prior to or after fungicide treatments. After inoculation the plants were kept in 100% relative humidity (one day in a dark dew chamber followed by two to three days in a lighted dew chamber at 20° C.) to permit spores to germinate and infect the leaf. The plants were then transferred to a greenhouse set at 20° C. for disease to develop. When disease symptoms were fully expressed on the 1st leaves of untreated plants, infection levels were assessed on a scale of 0 to 100 percent disease severity. Percent disease control was calculated using the ratio of disease severity on treated plants relative to untreated plants.

[3] = 24 h, 1 Day Protectant, read-out: PUCCRT disease control rating, 1DP
[4] = 72 h, 3 Day Curative, read-out: PUCCRT disease control rating, 3DC
[5] = 24 h, 1 Day Protectant, read-out: SEPTTR disease control rating, 1DP
[6] = 72 h, 3 Day Curative, read-out: SEPTTR disease control rating, 3DC

With `C=CCO[C@H]1[C@H](C)OC(=O)[C@@H](NC(=O)c2nccc(OC)c2OCOC(C)=O)CCO[C@@H]1Cc1ccc(F)cc1` [Compound 78] the pest or weed control at 121.5 g/ha [1, 3] was greater than 70%, the pest or weed control at 121.5 g/ha [1, 4] was greater than 70% and the pest or weed control at 121.5 g/ha [2, 5] was less than 70%. The pest or weed control at 121.5 g/ha [2, 6] was less than 70%.
With `CC[C@H]1OCC[C@H](NC(=O)c2nccc(OC)c2O)C(=O)O[C@@H](C)[C@@H]1Oc1ccccc1` [Compound 63] the pest or weed control at 100 µg/mL [1, 3] was greater than 70%, the pest or weed control at 100 µg/mL [1, 4] was greater than 70% and the pest or weed control at 100 µg/mL [2, 5] was greater than 70%. For the same compound, the pest or weed control at 100 µg/mL [2, 6] was greater than 70%.
`CC[C@H]1OCC[C@H](NC(=O)c2nccc(OC)c2OC(C)=O)C(=O)O[C@@H](C)[C@@H]1Oc1ccccc1` [Compound 94] was tested, and the pest or weed control at 121.5 g/ha [1, 3] was greater than 70%, the pest or weed control at 121.5 g/ha [1, 4] was greater than 70% and the pest or weed control at 121.5 g/ha [2, 5] was greater than 70%. For the same compound, the pest or weed control at 121.5 g/ha [2, 6] was greater than 70%.
Work on `COc1ccnc(C(=O)N[C@H]2CCO[C@H](Cc3ccc(F)cc3)[C@@H](OCC(C)C)[C@H](C)OC2=O)c1O` [Compound 53] yielded a pest or weed control at 100 µg/mL [1, 3] greater than 70%, a pest or weed control at 100 µg/mL [1, 4] greater than 70% and a pest or weed control at 100 µg/mL [2, 5] greater than 70%. The pest or weed control at 100 µg/mL [2, 6] was greater than 70%.
`COc1ccnc(C(=O)N[C@H]2CCOC[C@@H](Oc3ccccc3)[C@H](C)OC2=O)c1OCOC(C)=O` [Compound 99] gave a pest or weed control at 121.5 g/ha [1, 3] greater than 70%, a pest or weed control at 121.5 g/ha [1, 4] greater than 70% and a pest or weed control at 121.5 g/ha [2, 5] of less than 70%. It also gave a pest or weed control at 121.5 g/ha [2, 6] of less than 70%.
`COc1ccc(C[C@H]2OCC[C@H](NC(=O)c3nccc(OC)c3O)C(=O)O[C@@H](C)[C@@H]2OCC2CC2)cc1` [Compound 59] gave a pest or weed control at 100 µg/mL [1, 3] greater than 70%, a pest or weed control at 100 µg/mL [1, 4] greater than 70% and a pest or weed control at 100 µg/mL [2, 5] of less than 70%. It also gave a pest or weed control at 100 µg/mL [2, 6] greater than 70%.
In the case of `COc1ccnc(C(=O)N[C@H]2CCO[C@H](Cc3ccccc3)[C@@H](Oc3ccccc3)[C@H](C)OC2=O)c1OC(C)=O` [Compound 83], the pest or weed control at 121.5 g/ha [1, 3] is reported as greater than 70%, the pest or weed control at 121.5 g/ha [1, 4] is reported as greater than 70% and the pest or weed control at 121.5 g/ha [2, 5] is reported as greater than 70%. The pest or weed control at 121.5 g/ha [2, 6] was greater than 70%.
For `COc1ccnc(C(=O)N[C@H]2CCOC[C@@H](OC(=O)C(C)C)[C@H](C)OC2=O)c1O` [Compound 70], the pest or weed control at 100 µg/mL [1, 3] was less than 70%, the pest or weed control at 100 µg/mL [1, 4] was less than 70% and the pest or weed control at 100 µg/mL [2, 5] was less than 70%. The pest or weed control at 100 µg/mL [2, 6] was less than 70%.
For `COc1ccnc(C(=O)N[C@H]2CCO[C@H](Cc3ccccc3)[C@@H](OCC(C)C)[C@H](C)OC2=O)c1OCOC(C)=O` [Compound 72], the pest or weed control at 121.5 g/ha [1, 3] was greater than 70%, the pest or weed control at 121.5 g/ha [1, 4] was greater than 70% and the pest or weed control at 121.5 g/ha [2, 5] was greater than 70%. For the same compound, the pest or weed control at 121.5 g/ha [2, 6] was greater than 70%.
`COc1ccnc(C(=O)N[C@H]2CCO[C@H](Cc3ccccc3)[C@@H](OCC(C)C)[C@H](C)OC2=O)c1O` [Compound 51] gave a pest or weed control at 100 µg/mL [1, 3] greater than 70%, a pest or weed control at 100 µg/mL [1, 4] greater than 70% and a pest or weed control at 100 µg/mL [2, 5] greater than 70%. For the same compound, the pest or weed control at 100 µg/mL [2, 6] was less than 70%.
Compound `COc1ccnc(C(=O)N[C@H]2CCOC[C@@H](OCC(C)C)[C@H](C)OC2=O)c1O` [Compound 67] has a pest or weed control at 100 µg/mL [1, 3] greater than 70%, a pest or weed control at 100 µg/mL [1, 4] greater than 70% and a pest or weed control at 100 µg/mL [2, 5] greater than 70%. For the same compound, the pest or weed control at 100 µg/mL [2, 6] was greater than 70%.
Compound `COc1ccnc(C(=O)N[C@H]2CCOC[C@@H](OCC(C)C)[C@H](C)OC2=O)c1OCOC(C)=O` [Compound 97] has a pest or weed control at 121.5 g/ha [1, 3] greater than 70%, a pest or weed control at 121.5 g/ha [1, 4] greater than 70% and a pest or weed control at 121.5 g/ha [2, 5] greater than 70%. The pest or weed control at 121.5 g/ha [2, 6] was greater than 70%.
